Tests used:
Type in all cases: cell-based
[1] = test system: HTT mRNA alternative junction (AJ); assay: Splicing RT-qPCR assay, increase of HTT alternative junction (AJ) mRNA; conditions: A673 or K562 cells, 24 hours compound treatment, concentration having 50% response in AJ increase
Summary of the method: (§1)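 A673 (DMEM, 10% FBS) or K562 (IMDM, 10% FBS) cells exposed 24 h at 37 °C to an 11-point 3-fold series, top dose 10 uM final, DMSO ≤0.25%. Lysates assayed by RT-qPCR for HTT CJ and AJ, normalized to GAPDH, GUSB or PPIA and DMSO control via 2^(−ΔΔCt).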

[2] = test system: HTT mRNA canonical junction (CJ); assay: Splicing RT-qPCR assay, decrease of HTT canonical junction (CJ) mRNA; conditions: A673 or K562 cells, 24 hours compound treatment, concentration having 50% response in CJ decrease
Summary of the method: as §1

HTT CJ mRNA = assay: Gene panel canonical junction qPCR assay, HTT; conditions: protocol of Example 42, read-out: HTT IC50 (decrease in CJ mRNA levels)
Summary of the method: (§2)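 A673 or K562 cells treated 24 h at 37° C with 11-point 3-fold dilutions (top 10 uM, DMSO ≤0.25%). Canonical junction mRNA quantified by RT-qPCR, normalized to GAPDH, GUSB or PPIA and DMSO control (2^(−ΔΔCt)). 4-parameter logistic fit gives IC50 for CJ decrease.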

SMN2 CJ mRNA = assay: Gene panel canonical junction qPCR assay, SMN2; conditions: protocol of Example 42, read-out: SMN2 IC50 (decrease in CJ mRNA levels)
Summary of the method: as §2

Target C CJ mRNA = assay: Gene panel canonical junction qPCR assay, Target C; conditions: protocol of Example 42, read-out: Target C IC50 (decrease in CJ mRNA levels)
Summary of the method: as §2

Row | SMILES | AC50 [1] [nM] | AC50 [2] [nM] | IC50 (HTT CJ mRNA) [nM] | IC50 (SMN2 CJ mRNA) [nM] | IC50 (Target C CJ mRNA) [nM]
1 | Cc1cn2nc(-c3ccc(C(=O)NC4CCNCC4)c4nn(C)cc34)cc(C)c2n1 [Compound 281, 4-{2,8-dimethylimidazo[1,2-b]pyridazin-6-yl}-2-methyl-N-(piperidin-4-yl)indazole-7-carboxamide] | 1000 to 10000 | 1000 to 10000 | 1000 to 10000 | 100 to 1000 | 1000 to 10000
2 | Cc1cc2c(N3CCNCC3)ccc(C(=O)Nc3ccc4cn(C)nc4c3)c2o1 [Compound 261, 2-methyl-N-(2-methylindazol-6-yl)-4-(piperazin-1-yl)-1-benzofuran-7-carboxamide] | 1000 to 10000 | 1000 to 10000 | 1000 to 10000 | 1000 to 10000 | > 10000
3 | Cc1cn2cc(NC(=O)c3ccc(N4CCC(N(C)C)CC4)c4cn(C)nc34)cc(C)c2n1 [Compound 251] | 100 to 1000 | 100 to 1000 | 100 to 1000 | < 100 | 1000 to 10000
4 | Cc1cn2nc(NC(=O)c3ccc(N4CCNCC4)c4nn(C)cc34)nc2c(C)n1 [Compound 253] | > 10000 | > 10000 | > 10000 | 1000 to 10000 | > 10000
5 | Cc1cn2cc(NC(=O)c3ccc(N4CCNCC4)c4cn(C)nc34)cc(C)c2n1 [Compound 238] | 1000 to 10000 | 1000 to 10000 | 1000 to 10000 | < 100 | > 10000
6 | Cc1cn2cc(NC(=O)c3ccc(N4CCNCC4)c4cn(C)nc34)cc(Cl)c2n1 [Compound 269] | 100 to 1000 | 100 to 1000 | 100 to 1000 | < 100 | 1000 to 10000
7 | CCC1CN(c2ccc(C(=O)Nc3cc(F)c4nc(C)cn4c3)c3nn(C)cc23)CCN1 (stereo not drawn) [Compound 239] | 100 to 1000 | 100 to 1000 | 100 to 1000 | < 100 | 1000 to 10000
8 | Cc1cn2cc(NC(=O)c3ccc(N4C[C@H]5CC[C@@H](C4)N5)c4cc(C)oc34)cc(F)c2n1 [Compound 255] | 1000 to 10000 | 1000 to 10000 | 1000 to 10000 | < 100 | > 10000
9 | Cc1cn2cc(NC(=O)c3ccc(N4CC5(CN(C)C5)C4)c4cn(C)nc34)cc(F)c2n1 [Compound 243] | 100 to 1000 | 100 to 1000 | 100 to 1000 | < 100 | 1000 to 10000
10 | Cc1cn2nc(NC(=O)c3ccc(C4CCNCC4)c4ccoc34)cc(C)c2n1 [Compound 119, N-[2,8-dimethylimidazo[1,2-b]pyridazin-6-yl]-4-(piperidin-4-yl)-1-benzofuran-7-carboxamide] | > 10000 | 1000 to 10000 | 1000 to 10000 | 100 to 1000 | > 10000
11 | Cc1cn2cc(NC(=O)c3ccc(N4CC5(CNC5)C4)c4cn(C)nc34)cc(F)c2n1 [Compound 242] | 1000 to 10000 | 100 to 1000 | 100 to 1000 | < 100 | 1000 to 10000
12 | Cc1cn2cc(NC(=O)c3ccc(N4CCNC(C)(C)C4)c4cc(C)oc34)cc(F)c2n1 [Compound 193] | 1000 to 10000 | 1000 to 10000 | 1000 to 10000 | < 100 | > 10000
13 | Cc1cn2cc(NC(=O)c3ccc(N4CCN(C)C(C)C4)c4cn(C)nc34)cc(F)c2n1 (stereo not drawn) [Compound 229] | 100 to 1000 | 100 to 1000 | 100 to 1000 | < 100 | 1000 to 10000
14 | Cc1cn2cc(NC(=O)c3ccc(C4CCN(C)CC4)c4cc(C)oc34)cc(F)c2n1 [Compound 256, N-[8-fluoro-2-methylimidazo[1,2-a]pyridin-6-yl]-2-methyl-4-(1-methylpiperidin-4-yl)-1-benzofuran-7-carboxamide] | 1000 to 10000 | 1000 to 10000 | 1000 to 10000 | < 100 | > 10000
15 | Cc1cc2c(N3CCNCC3)ccc(C(=O)Nc3cc(F)c4cn(C)nc4c3)c2o1 [Compound 217, N-(4-fluoro-2-methylindazol-6-yl)-2-methyl-4-(piperazin-1-yl)-1-benzofuran-7-carboxamide] | 1000 to 10000 | 1000 to 10000 | 1000 to 10000 | 1000 to 10000 | > 10000

Reference: US20230365566A1, “HETEROCYCLIC AMIDES AND THEIR USE FOR MODULATING SPLICING” (REMIX THERAPEUTICS INC., priority 2020, published 2023)
